Measured values as given in ChEMBL document CHEMBL1201862, “PubChem BioAssay data set” (2004).
Where a name gives a salt, the structure may show the parent alone. The source made the active and inactive calls.

Experiments:
[1] = Luminescence Cell-Based Dose Response HTS to Identify Activators of Luciferase Translation or Activity in H4 […] Cells. [Related pubchem assays: 1829 (Project Summary), 1814 (Primary HTS)]; format: functional
HEK293 = assay: cells; format: functional, cell-based; details: Homo sapiens
[2] = Luminescence Cell-Based Dose Confirmation HTS to Identify Activators of 5'UTR Stem-Loop Driven Alpha-Synuclein mRNA Translation in H4 Neuroglioblastoma Cells. [Related pubchem assays: 1829 (Project Summary), 1814 (Primary HTS)]; format: functional
[3] = biological target: T1, Nuclear receptor subfamily 0 group B member 1 (Homo sapiens, UniProt P51843); assay: Luminescence-based cell-based high throughput dose response assay for inhibitors of the orphan nuclear receptor subfamily 0, group B, member 1 (DAX1; NR0B1). [Related pubchem assays (depositor defined):AID504766, AID504790]; format: functional
T1 sequence (P51843 whole entry): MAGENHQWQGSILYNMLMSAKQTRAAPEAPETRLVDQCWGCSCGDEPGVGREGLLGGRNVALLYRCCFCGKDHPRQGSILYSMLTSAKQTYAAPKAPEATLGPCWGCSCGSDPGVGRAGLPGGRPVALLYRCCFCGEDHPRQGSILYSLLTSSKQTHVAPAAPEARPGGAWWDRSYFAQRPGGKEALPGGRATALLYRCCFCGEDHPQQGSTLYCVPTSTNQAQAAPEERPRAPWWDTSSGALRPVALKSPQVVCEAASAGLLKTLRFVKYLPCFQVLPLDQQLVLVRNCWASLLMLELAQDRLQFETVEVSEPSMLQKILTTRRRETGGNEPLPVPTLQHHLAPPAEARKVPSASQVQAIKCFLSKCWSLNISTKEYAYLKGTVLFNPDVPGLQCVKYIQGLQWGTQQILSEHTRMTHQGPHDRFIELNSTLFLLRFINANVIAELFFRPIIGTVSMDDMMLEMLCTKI

cells [4] = format: functional, cell-based
cells [5] = format: functional, cell-based; remark: listed apart in the source
[6] = biological target: T2, Oxysterols receptor LXR-beta (Homo sapiens, UniProt P55055); format: functional, cell-based;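 further: agonist activity at LXR measured by a cell-based luminescence readout across a dose range, run as a counterscreen for daf-12 agonists; HEK293 cells with Gal4-LXR fusion and GAL4-driven luciferase reporter; potency for activation of Gal4-LXR reporter so compounds are agonists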
T2 sequence (P55055 whole entry): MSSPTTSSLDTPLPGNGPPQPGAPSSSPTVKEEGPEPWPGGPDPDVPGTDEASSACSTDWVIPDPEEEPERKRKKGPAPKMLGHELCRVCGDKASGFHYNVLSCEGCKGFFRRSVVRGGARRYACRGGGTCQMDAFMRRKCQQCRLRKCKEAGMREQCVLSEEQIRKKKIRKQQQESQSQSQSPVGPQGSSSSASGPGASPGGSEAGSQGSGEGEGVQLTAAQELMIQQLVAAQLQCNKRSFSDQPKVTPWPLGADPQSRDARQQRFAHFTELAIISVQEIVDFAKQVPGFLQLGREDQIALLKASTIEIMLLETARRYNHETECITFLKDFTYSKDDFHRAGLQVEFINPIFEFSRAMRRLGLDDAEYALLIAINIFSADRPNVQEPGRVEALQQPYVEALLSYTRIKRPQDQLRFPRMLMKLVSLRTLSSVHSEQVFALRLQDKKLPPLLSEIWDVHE

H4 = assay: Luminescence Cell-Based Dose Response HTS to Identify Activators of 5'UTR Stem-Loop Driven Prion Protein mRNA Translation in H4 Neuroglioblastoma Cells. [Related pubchem assays: 1829 (Project Summary), 1814 (Primary HTS)]; format: functional; details: Homo sapiens
[7] = viability loss in HepG2 hepatoma cells – cell-based, ATP luminescence, cherry-pick, activator set 2, cytotoxicity control, dose response (AID 1053143); format: functional
[8] = biological target: Voltage-gated inwardly rectifying potassium channel KCNH2 (Homo sapiens, UniProt Q12809); details: Potency;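 further: confirmatory quantitative high-throughput screen measuring inhibition of hERG channel activity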
Chain of Voltage-gated inwardly rectifying potassium channel KCNH2 (Q12809 whole entry): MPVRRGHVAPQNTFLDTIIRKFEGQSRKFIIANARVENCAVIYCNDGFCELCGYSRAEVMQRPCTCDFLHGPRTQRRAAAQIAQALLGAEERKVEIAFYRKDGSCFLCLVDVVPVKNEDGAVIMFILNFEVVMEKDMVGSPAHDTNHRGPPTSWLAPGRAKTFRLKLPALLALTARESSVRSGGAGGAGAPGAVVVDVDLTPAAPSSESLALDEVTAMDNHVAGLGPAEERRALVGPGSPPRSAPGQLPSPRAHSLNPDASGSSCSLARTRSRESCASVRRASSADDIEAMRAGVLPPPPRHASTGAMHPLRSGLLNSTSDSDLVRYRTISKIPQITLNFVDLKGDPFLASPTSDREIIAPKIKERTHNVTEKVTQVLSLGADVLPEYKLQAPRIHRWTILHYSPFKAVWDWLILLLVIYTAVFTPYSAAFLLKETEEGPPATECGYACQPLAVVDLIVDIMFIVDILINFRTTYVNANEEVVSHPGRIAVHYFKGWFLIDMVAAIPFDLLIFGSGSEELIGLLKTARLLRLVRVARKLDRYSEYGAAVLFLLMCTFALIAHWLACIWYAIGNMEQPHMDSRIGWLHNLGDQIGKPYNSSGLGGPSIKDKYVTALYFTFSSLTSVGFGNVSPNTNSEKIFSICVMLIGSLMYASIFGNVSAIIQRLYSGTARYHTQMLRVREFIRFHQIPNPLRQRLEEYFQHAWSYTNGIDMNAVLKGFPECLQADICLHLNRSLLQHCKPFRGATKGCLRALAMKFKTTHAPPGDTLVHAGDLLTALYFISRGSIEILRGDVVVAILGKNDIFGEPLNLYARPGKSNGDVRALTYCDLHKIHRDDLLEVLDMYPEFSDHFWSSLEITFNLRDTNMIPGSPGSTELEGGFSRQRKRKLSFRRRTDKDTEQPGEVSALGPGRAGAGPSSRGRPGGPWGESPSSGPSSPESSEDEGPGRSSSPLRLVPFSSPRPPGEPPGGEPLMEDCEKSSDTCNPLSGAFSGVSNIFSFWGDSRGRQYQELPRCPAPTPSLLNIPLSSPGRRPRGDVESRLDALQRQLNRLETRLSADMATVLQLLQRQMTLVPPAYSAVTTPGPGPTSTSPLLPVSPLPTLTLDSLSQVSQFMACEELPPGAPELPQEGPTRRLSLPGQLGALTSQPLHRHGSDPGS

[9] = biological target: T3, Microphthalmia-associated transcription factor (Homo sapiens, UniProt O75030); assay: reducers of TRPM1 reporter luminescence, concentration series – cell-based, SK-MEL-5, cherry-picked, set 3, MITF inhibitor project, dose response (AID 493073); format: functional;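 further: SK-MEL-5 melanoma cells with luciferase driven by the MITF target TRPM1 promoter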
T3 sequence (O75030 whole entry): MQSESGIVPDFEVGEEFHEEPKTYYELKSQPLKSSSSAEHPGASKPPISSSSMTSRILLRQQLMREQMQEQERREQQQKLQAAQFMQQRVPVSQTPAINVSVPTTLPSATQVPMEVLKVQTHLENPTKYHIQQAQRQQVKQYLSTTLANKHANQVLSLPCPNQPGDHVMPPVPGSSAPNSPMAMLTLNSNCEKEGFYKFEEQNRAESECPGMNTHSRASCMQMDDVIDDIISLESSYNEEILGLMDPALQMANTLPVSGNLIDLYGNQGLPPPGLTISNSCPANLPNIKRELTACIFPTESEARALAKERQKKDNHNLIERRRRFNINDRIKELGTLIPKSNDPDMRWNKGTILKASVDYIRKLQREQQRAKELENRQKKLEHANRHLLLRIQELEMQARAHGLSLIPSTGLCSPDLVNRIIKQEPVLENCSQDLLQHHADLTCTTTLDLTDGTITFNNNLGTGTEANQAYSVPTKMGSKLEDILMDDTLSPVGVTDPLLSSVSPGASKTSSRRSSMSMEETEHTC

INS1 = assay: INS-1E survival protection against cytokine death – cell-based, luminescence, retest, dose response (AID 449756); format: functional; details: Rattus norvegicus;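 further: cell death triggered by IL-1 beta plus TNF-alpha plus IFN-gamma mixture; protective hits raise ATP signal compared with cytokine alone wells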
A-375 [10] = assay: MITF: Counter assay: A375 proliferation Measured in Cell-Based System Using Plate Reader - 2084-03_Inhibitor_Dose_DryPowder_Activity. [Related pubchem assays (depositor defined):AID488944]; format: functional; details: Homo sapiens
[11] = biological target: DNA dC->dU-editing enzyme APOBEC-3G (Homo sapiens, UniProt Q9HC16); format: functional;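 further: Dose-response counterscreen measuring inhibition of APOBEC3G DNA deaminase activity, run while confirming APOBEC3A inhibitors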
Chain of DNA dC->dU-editing enzyme APOBEC-3G (Q9HC16 whole entry): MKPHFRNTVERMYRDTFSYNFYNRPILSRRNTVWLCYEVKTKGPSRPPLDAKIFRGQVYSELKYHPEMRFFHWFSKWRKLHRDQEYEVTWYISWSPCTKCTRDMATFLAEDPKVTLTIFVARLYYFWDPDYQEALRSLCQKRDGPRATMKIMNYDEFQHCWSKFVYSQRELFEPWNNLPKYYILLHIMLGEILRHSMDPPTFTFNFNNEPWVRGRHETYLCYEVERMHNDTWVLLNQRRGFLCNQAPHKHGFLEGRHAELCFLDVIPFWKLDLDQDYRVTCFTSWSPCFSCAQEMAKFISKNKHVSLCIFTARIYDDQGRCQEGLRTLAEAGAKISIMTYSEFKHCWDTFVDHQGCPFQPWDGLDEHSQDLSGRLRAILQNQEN

[12] = biological target: T4, Ubiquitin-conjugating enzyme E2 N (Homo sapiens, UniProt P61088); format: functional;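 further: Dose-response confirmation in a TR-FRET assay detecting UBC13-driven polyubiquitin chain formation, inhibition measured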
T4 sequence (P61088 whole entry): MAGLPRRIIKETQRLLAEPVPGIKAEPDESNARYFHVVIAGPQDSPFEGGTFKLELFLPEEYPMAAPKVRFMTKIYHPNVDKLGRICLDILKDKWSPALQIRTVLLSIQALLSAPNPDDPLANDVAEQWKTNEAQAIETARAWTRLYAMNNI

[13] = biological target: DNA dC->dU-editing enzyme APOBEC-3A (Homo sapiens, UniProt P31941); assay: Dose Response confirmation of small molecule APOBEC3A DNA Deaminase Inhibitors via a fluorescence-based single-stranded DNA deaminase assay. [Related pubchem assays (depositor defined):AID493011, AID493024]; format: functional
Chain of DNA dC->dU-editing enzyme APOBEC-3A (P31941 whole entry): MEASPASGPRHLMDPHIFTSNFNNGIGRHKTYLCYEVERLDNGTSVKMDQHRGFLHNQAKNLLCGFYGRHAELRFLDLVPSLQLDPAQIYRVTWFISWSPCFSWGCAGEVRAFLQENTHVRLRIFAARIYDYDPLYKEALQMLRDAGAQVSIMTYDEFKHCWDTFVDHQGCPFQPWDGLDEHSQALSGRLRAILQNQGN

A-375 [14] = assay: proliferation inhibition in MITF-low A375 cells – cell-based, cherry-pick samples, set 2, counter-screen for MITF modulator project, dose response (AID 540335); format: functional; details: Homo sapiens
Cytochrome P450 2C9 = Cytochrome P450 2C9 (Homo sapiens, UniProt P11712)
Chain of Cytochrome P450 2C9 (P11712 whole entry): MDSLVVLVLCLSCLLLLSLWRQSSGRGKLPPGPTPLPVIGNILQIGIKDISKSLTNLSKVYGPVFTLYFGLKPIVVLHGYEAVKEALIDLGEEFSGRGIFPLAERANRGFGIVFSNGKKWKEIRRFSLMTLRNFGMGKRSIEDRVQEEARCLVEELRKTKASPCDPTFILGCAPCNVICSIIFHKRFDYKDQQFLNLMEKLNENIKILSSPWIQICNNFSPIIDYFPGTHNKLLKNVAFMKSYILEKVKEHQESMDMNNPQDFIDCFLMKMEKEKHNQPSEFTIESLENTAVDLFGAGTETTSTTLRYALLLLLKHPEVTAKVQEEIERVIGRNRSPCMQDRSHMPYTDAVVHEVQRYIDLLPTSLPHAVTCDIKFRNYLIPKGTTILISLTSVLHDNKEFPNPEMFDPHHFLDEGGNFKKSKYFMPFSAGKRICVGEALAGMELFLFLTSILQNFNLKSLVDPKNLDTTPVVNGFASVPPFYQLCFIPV

Beta-galactosidase = Beta-galactosidase (Escherichia coli, UniProt Q8VNN2); assay: detection-enzyme interference by beta-gal modulators – biochemical, E. coli enzyme, set 3, artefact control for CCR6 antagonist project, dose response (AID 504712); format: functional
Chain of Beta-galactosidase (Q8VNN2 whole entry): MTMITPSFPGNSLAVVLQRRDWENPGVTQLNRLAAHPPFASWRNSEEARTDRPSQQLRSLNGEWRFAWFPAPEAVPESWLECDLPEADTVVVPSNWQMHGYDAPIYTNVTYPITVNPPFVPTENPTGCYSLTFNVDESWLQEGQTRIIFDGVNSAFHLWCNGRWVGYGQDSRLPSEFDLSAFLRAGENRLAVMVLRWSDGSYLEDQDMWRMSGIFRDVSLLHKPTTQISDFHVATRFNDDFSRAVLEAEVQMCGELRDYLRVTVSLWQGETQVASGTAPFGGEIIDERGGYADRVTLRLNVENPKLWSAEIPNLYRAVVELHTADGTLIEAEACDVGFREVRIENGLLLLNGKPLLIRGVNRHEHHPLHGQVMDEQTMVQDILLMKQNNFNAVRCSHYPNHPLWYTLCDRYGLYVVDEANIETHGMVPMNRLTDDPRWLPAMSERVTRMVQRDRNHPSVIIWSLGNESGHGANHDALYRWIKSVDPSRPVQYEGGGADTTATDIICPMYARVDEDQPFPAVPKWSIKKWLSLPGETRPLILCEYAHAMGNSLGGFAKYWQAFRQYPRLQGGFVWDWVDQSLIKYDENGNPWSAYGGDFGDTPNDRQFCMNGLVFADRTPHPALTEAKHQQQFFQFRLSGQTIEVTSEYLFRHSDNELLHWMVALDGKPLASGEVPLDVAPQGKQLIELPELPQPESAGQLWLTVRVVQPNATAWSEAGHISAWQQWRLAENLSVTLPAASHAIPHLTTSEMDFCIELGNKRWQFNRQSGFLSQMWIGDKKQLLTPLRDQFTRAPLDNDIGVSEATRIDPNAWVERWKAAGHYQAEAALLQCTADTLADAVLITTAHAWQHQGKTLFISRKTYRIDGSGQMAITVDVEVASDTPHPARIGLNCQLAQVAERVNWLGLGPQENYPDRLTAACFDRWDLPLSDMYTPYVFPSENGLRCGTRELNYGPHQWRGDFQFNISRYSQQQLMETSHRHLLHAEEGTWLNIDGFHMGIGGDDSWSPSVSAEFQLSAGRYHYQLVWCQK

[15] = biological target: T5, Polyadenylate-binding protein 1 (Homo sapiens, UniProt P11940); assay: MLLE binding blockers, Cy5 peptide tracer – biochemical, fluorescence polarization, Cy5-PAM2 peptide, secondary, miRNA deadenylation inhibitor project, dose response (AID 602260); format: functional; details: read-out: IC50_Mean
T5 sequence (P11940 whole entry, the tested form may be a part): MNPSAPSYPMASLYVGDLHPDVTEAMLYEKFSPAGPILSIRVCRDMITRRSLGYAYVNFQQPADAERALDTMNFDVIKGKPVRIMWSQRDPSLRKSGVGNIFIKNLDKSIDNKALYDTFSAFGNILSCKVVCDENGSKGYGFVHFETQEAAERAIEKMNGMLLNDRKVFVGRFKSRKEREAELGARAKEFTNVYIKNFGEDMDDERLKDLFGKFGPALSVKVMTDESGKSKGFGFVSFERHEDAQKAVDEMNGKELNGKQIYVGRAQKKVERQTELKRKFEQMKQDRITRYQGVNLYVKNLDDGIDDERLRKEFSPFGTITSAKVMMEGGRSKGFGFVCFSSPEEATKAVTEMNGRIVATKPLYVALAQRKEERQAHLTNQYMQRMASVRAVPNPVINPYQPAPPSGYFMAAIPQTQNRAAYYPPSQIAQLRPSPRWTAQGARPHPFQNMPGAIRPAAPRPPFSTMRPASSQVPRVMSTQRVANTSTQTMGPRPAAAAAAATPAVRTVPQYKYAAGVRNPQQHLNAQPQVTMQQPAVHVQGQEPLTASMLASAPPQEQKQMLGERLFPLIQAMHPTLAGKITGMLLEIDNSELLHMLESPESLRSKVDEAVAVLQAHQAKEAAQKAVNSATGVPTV

[16] = biological target: T5, Polyadenylate-binding protein 1; assay: MLLE domain peptide-binding blockers, IC50 – biochemical, fluorescence polarization, FITC-PAM2 peptide, dose response (AID 602259); format: functional; details: read-out: IC50_Mean

## O=C(Nc1ccccc1O)c1ccc(NS(=O)(=O)c2cccc3cccnc23)cc1
[1]
  EC50: 10.7 µM (active)
HEK293
  IC50: 0.695 µM (active)
[2]
  EC50: 11.2 µM (active)
[3]
  IC50: > 67.5 µM (inactive)
Cells [4]
  EC50: 8.05 µM (active)
Cells [5]
  EC50: > 350 µM (not active)
[6]
  EC50: > 67.5 µM (inactive)
H4
  EC50: 34 µM (active)
[7]
  AC50: 9.01 µM (active)

## C#CCOC(=O)C1=CCCN(C)C1 [ARECAIDINE PROPARGYL ESTER HYDROBROMIDE]
[8]
  AC50: 35.5 µM (inconclusive)

## CCOC(=O)N1CCN(C(=O)COc2cc(=O)n(CC)c3ccccc23)CC1
HEK293
  IC50: > 67.5 µM (inactive)
[3]
  IC50: > 67.5 µM (inactive)

## COc1ccc(CC(=O)NC2CCSc3ccccc32)c(OC)c1 (stereo unspecified)
HEK293
  IC50: > 67.6 µM (inactive)
[3]
  IC50: > 67.6 µM (inactive)

## CC(C)Oc1ccc(C(CCN)C2CCCCC2)cc1 (stereo unspecified)
[9]
  AC50: 9.99 µM (active)
INS1
  AC50: 7.47 µM (active)
A-375 [10]
  AC50: 17.7 µM (active)

## COC(=O)C1=C(C)N(Cc2ccccc2)C(NCCc2cccnc2)=N[C@H]1c1ccc(Br)cc1
[11]
  IC50: 4.68 µM (active)
[9]
  AC50: 17.8 µM (active)
[12]
  IC50: > 20 µM (inactive)
[13]
  IC50: 3.04 µM (active)
A-375 [10]
  AC50: > 11 µM (active)
A-375 [14]
  AC50: > 11 µM (active)

## COC[C@H]1OC(=O)c2coc3c2[C@@]1(C)C1=C(C3=O)C2CCC(=O)[C@@]2(C)C[C@H]1OC(C)=O (stereo partly specified)
[8]
  AC50: 17.8 µM (inconclusive)

## O=C1NC(=S)NC(=O)C1=Cc1cccc2cc3ccccc3cc12
[9]
  AC50: 4.81 µM (active)
Cytochrome P450 2C9
  AC50: 3.16 µM (inconclusive)
Beta-galactosidase
  IC50: > 66.6 µM (inactive)
[15]
  IC50: > 66 µM (inactive)
A-375 [10]
  AC50: > 35 µM (active)
[16]
  IC50: > 66 µM (inactive)
A-375 [14]
  AC50: > 35 µM (active)
